Measured values published in patent publication US12077537B2 (Gilead Sciences, Inc., priority 2020, dated 2024).

Test system: HIV-IIIb
Assay: Antiviral assay in MT4 cells
Type: cell-based
Conditions: Human immunodeficiency virus 1, MT4, 120 h; MT-4 cells mixed with HIV-IIIb at m.o.i. 0.003; 5 days at 37° C.; CellTiter-Glo luminescence; 50% decrease in signal, a measure of HIV-1 replication
In short: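 Compound, tested at ten 3-fold dilutions in quadruplicate in 10% FBS medium, received MT-4 cells pre-mixed 1 hour with HIV-IIIb (m.o.i. 0.003). Protection was read as luminescent cell viability (CellTiter-Glo) after 5 days' culture at 37° C.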

Row | SMILES | EC50
1 | Cn1nc(NS(C)(=O)=O)c2cccc(-c3cc4sc(N5CCNCC5)nc4nc3[C@H](Cc3cc(F)cc(F)c3)NC(=O)Cn3nc(C(F)(F)F)c4c3C(F)(F)[C@@H]3C[C@H]43)c21 [Example 86, 2-((3bS,4aR)-5,5-difluoro-3-(trifluoromethyl)-3b,4,4a,5-tetrahydro-1H-cyclopropa[3,4]cyclopenta[1,2-c]pyrazol-1-yl)-N—((S)-2-(3,5-difluorophenyl)-1-(6-(1-methyl-3-(methylsulfonamido)-1H-indazol-7-yl)-2-(piperazin-1-yl)thiazolo[4,5-b]pyridin-5-yl)ethyl)acetamide] | 15.3 nM
2 | Cn1nc(NS(C)(=O)=O)c2cccc(-c3cc4sc(N5CC6(CNC6)C5)nc4nc3[C@H](Cc3cc(F)cc(F)c3)NC(=O)Cn3nc(C(F)(F)F)c4c3C(F)(F)[C@@H]3C[C@H]43)c21 [Example 87, 2-((3bS,4aR)-5,5-difluoro-3-(trifluoromethyl)-3b,4,4a,5-tetrahydro-1H-cyclopropa[3,4]cyclopenta[1,2-c]pyrazol-1-yl)-N—((S)-2-(3,5-difluorophenyl)-1-(6-(1-methyl-3-(methylsulfonamido)-1H-indazol-7-yl)-2-(2,6-diazaspiro[3.3]heptan-2-yl)thiazolo[4,5-b]pyridin-5-yl)ethyl)acetamide] | 269 nM
3 | C[C@H]1CN(c2nc3nc([C@H](Cc4cc(F)cc(F)c4)NC(=O)Cn4nc(C(F)(F)F)c5c4C(F)(F)[C@@H]4C[C@H]54)c(-c4cccc5c(NS(C)(=O)=O)nn(C)c45)cc3s2)CCN1 [Example 88, 2-((3bS,4aR)-5,5-difluoro-3-(trifluoromethyl)-3b,4,4a,5-tetrahydro-1H-cyclopropa[3,4]cyclopenta[1,2-c]pyrazol-1-yl)-N—((S)-2-(3,5-difluorophenyl)-1-(6-(1-methyl-3-(methylsulfonamido)-1H-indazol-7-yl)-2-((S)-3-methylpiperazin-1-yl)thiazolo[4,5-b]pyridin-5-yl)ethyl)acetamide] | 10.3 nM
4 | C[C@@H]1CN(c2nc3nc([C@H](Cc4cc(F)cc(F)c4)NC(=O)Cn4nc(C(F)(F)F)c5c4C(F)(F)[C@@H]4C[C@H]54)c(-c4cccc5c(NS(C)(=O)=O)nn(C)c45)cc3s2)CCN1 [Example 89, 2-((3bS,4aR)-5,5-difluoro-3-(trifluoromethyl)-3b,4,4a,5-tetrahydro-1H-cyclopropa[3,4]cyclopenta[1,2-c]pyrazol-1-yl)-N—((S)-2-(3,5-difluorophenyl)-1-(6-(1-methyl-3-(methylsulfonamido)-1H-indazol-7-yl)-2-((R)-3-methylpiperazin-1-yl)thiazolo[4,5-b]pyridin-5-yl)ethyl)acetamide] | 11.3 nM
5 | Cn1nc(NS(C)(=O)=O)c2cccc(-c3cc4sc(N5CCC6(CC5)CNC6)nc4nc3[C@H](Cc3cc(F)cc(F)c3)NC(=O)Cn3nc(C(F)(F)F)c4c3C(F)(F)[C@@H]3C[C@H]43)c21 [Example 90, 2-((3bS,4aR)-5,5-difluoro-3-(trifluoromethyl)-3b,4,4a,5-tetrahydro-1H-cyclopropa[3,4]cyclopenta[1,2-c]pyrazol-1-yl)-N—((S)-2-(3,5-difluorophenyl)-1-(6-(1-methyl-3-(methylsulfonamido)-1H-indazol-7-yl)-2-(2,7-diazaspiro[3.5]nonan-7-yl)thiazolo[4,5-b]pyridin-5-yl)ethyl)acetamide] | 431 nM
6 | Cn1nc(NS(C)(=O)=O)c2cccc(-c3cc4sc(N5CC6(CCNCC6)C5)nc4nc3[C@H](Cc3cc(F)cc(F)c3)NC(=O)Cn3nc(C(F)(F)F)c4c3C(F)(F)[C@@H]3C[C@H]43)c21 [Example 91, 2-((3bS,4aR)-5,5-difluoro-3-(trifluoromethyl)-3b,4,4a,5-tetrahydro-1H-cyclopropa[3,4]cyclopenta[1,2-c]pyrazol-1-yl)-N—((S)-2-(3,5-difluorophenyl)-1-(6-(1-methyl-3-(methylsulfonamido)-1H-indazol-7-yl)-2-(2,7-diazaspiro[3.5]nonan-2-yl)thiazolo[4,5-b]pyridin-5-yl)ethyl)acetamide] | 64.9 nM

The next lines start with the values.

Row | EC50 | SMILES
7 | 14.8 nM | Cn1nc(NS(C)(=O)=O)c2cccc(-c3cc4[nH]c(C5CC5)nc4nc3[C@H](Cc3cc(F)cc(F)c3)NC(=O)Cn3nc(C(F)(F)F)c4c3C(F)(F)[C@@H]3C[C@H]43)c21 [Example 92, N—((S)-1-(2-cyclopropyl-6-(1-methyl-3-(methylsulfonamido)-1H-indazol-7-yl)-1H-imidazo[4,5-b]pyridin-5-yl)-2-(3,5-difluorophenyl)ethyl)-2-((3bS,4aR)-5,5-difluoro-3-(trifluoromethyl)-3b,4,4a,5-tetrahydro-1H-cyclopropa[3,4]cyclopenta[1,2-c]pyrazol-1-yl)acetamide]
8 | 11.1 nM | Cn1nc(NS(C)(=O)=O)c2cccc(-c3cc4[nH]c(C5CC5)nc4nc3[C@H](Cc3cc(F)cc(F)c3)NC(=O)Cn3nc(C(F)F)c4c3C(F)(F)[C@@H]3C[C@H]43)c21 [Example 93, N—((S)-1-(2-cyclopropyl-6-(1-methyl-3-(methylsulfonamido)-1H-indazol-7-yl)-1H-imidazo[4,5-b]pyridin-5-yl)-2-(3,5-difluorophenyl)ethyl)-2-((3bS,4aR)-3-(difluoromethyl)-5,5-difluoro-3b,4,4a,5-tetrahydro-1H-cyclopropa[3,4]cyclopenta[1,2-c]pyrazol-1-yl)acetamide]
9 | 81.2 nM | Cn1nc(NS(C)(=O)=O)c2cccc(-c3cc4[nH]c(-c5ccccc5)nc4nc3[C@H](Cc3cc(F)cc(F)c3)NC(=O)Cn3nc(C(F)(F)F)c4c3C(F)(F)[C@@H]3C[C@H]43)c21 [Example 94, 2-((3bS,4aR)-5,5-difluoro-3-(trifluoromethyl)-3b,4,4a,5-tetrahydro-1H-cyclopropa[3,4]cyclopenta[1,2-c]pyrazol-1-yl)-N—((S)-2-(3,5-difluorophenyl)-1-(6-(1-methyl-3-(methylsulfonamido)-1H-indazol-7-yl)-2-phenyl-1H-imidazo[4,5-b]pyridin-5-yl)ethyl)acetamide]
10 | 67.5 nM | Cn1nc(NS(C)(=O)=O)c2cccc(-c3cc4[nH]c(-c5ccccc5)nc4nc3[C@H](Cc3cc(F)cc(F)c3)NC(=O)Cn3nc(C(F)F)c4c3C(F)(F)[C@@H]3C[C@H]43)c21 [Example 95, 2-((3bS,4aR)-3-(difluoromethyl)-5,5-difluoro-3b,4,4a,5-tetrahydro-1H-cyclopropa[3,4]cyclopenta[1,2-c]pyrazol-1-yl)-N—((S)-2-(3,5-difluorophenyl)-1-(6-(1-methyl-3-(methylsulfonamido)-1H-indazol-7-yl)-2-phenyl-1H-imidazo[4,5-b]pyridin-5-yl)ethyl)acetamide]
11 | 3.9 nM | Cn1nc(NS(C)(=O)=O)c2c(Cl)ccc(-c3cc4[nH]c(C5CC5)nc4nc3[C@H](Cc3cc(F)cc(F)c3)NC(=O)Cn3nc(C(F)(F)F)c4c3C(F)(F)[C@@H]3C[C@H]43)c21 [Example 96, N—((S)-1-(6-(4-chloro-1-methyl-3-(methylsulfonamido)-1H-indazol-7-yl)-2-cyclopropyl-1H-imidazo[4,5-b]pyridin-5-yl)-2-(3,5-difluorophenyl)ethyl)-2-((3bS,4aR)-5,5-difluoro-3-(trifluoromethyl)-3b,4,4a,5-tetrahydro-1H-cyclopropa[3,4]cyclopenta[1,2-c]pyrazol-1-yl)acetamide]
